Tests used:
Test in all cases: relative viability (nuclei count vs DMSO), 5 days (fraction); higher = more cells survive
NCI-H1437 = test system: NCI-H1437
In short: (§1)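 Lung cancer cell lines in 1536-well plates were dosed by pin tool the day after seeding, either with one drug alone or with a fixed anchor-drug dose plus five library-drug doses (not always all listed) in √10 steps. After 5 days, cells were fixed and their nuclei stained in one step (final 0.05% Triton X-100, 1% formaldehyde, 1 ug/ml Hoechst), then counted on 4× images. Relative viability is the nuclei count in treated wells divided by that in vehicle wells. Values are medians of duplicate plates.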

NCI-H23 = test system: NCI-H23
In short: as §1

HCC-366 = test system: HCC-366
In short: as §1

SW 1573 = test system: SW 1573
In short: as §1

NCI-H727 = test system: NCI-H727
In short: as §1

NCI-H460 = test system: NCI-H460
In short: as §1

HCC-827 = test system: HCC-827
In short: as §1

CAL-12T = test system: CAL-12T
In short: as §1

LCLC-103H = test system: LCLC-103H
In short: as §1

HOP-62 = test system: HOP-62
In short: as §1

SK-LU-1 = test system: SK-LU-1
In short: as §1

NCI-H1395 = test system: NCI-H1395
In short: as §1

EMC-BAC-2 = test system: EMC-BAC-2
In short: as §1

COR-L 105 = test system: COR-L 105
In short: as §1

NCI-H1915 = test system: NCI-H1915
In short: as §1

HARA = test system: HARA
In short: as §1

NCI-H2228 = test system: NCI-H2228
In short: as §1

NCI-H2009 = test system: NCI-H2009
In short: as §1

NCI-H1755 = test system: NCI-H1755
In short: as §1

A-427 = test system: A-427
In short: as §1

SMILES: CCN(CC)CCCCNc1ncc2cc(-c3cc(OC)cc(OC)c3)c(NC(=O)NC(C)(C)C)nc2n1 + COc1cc2c(Oc3ccc(NC(=O)C4(C(=O)Nc5ccc(F)cc5)CC4)cc3F)ccnc2cc1OCCCN1CCOCC1 [Foretinib] (partner 0.25 µM)
- relative viability (NCI-H1437; first compound 0.01 µM): 1.47
- relative viability (NCI-H1437; first compound 0.03162 µM): 1.21
- relative viability (NCI-H1437; first compound 0.1 µM): 1.3
- relative viability (NCI-H1437; first compound 0.3162 µM): 1.3
- relative viability (NCI-H1437; first compound 1 µM): 1.16
- relative viability (NCI-H23; first compound 0.01 µM): 1.01
- relative viability (NCI-H23; first compound 0.03162 µM): 0.831
- relative viability (NCI-H23; first compound 0.1 µM): 1.23
- relative viability (NCI-H23; first compound 0.3162 µM): 0.984
- relative viability (NCI-H23; first compound 1 µM): 0.955
- relative viability (HCC-366; first compound 0.01 µM): 0.951
- relative viability (HCC-366; first compound 0.03162 µM): 0.941
- relative viability (HCC-366; first compound 0.1 µM): 1.05
- relative viability (HCC-366; first compound 0.3162 µM): 0.981
- relative viability (HCC-366; first compound 1 µM): 0.999
- relative viability (SW 1573; first compound 0.01 µM): 0.928
- relative viability (SW 1573; first compound 0.03162 µM): 0.878
- relative viability (SW 1573; first compound 0.1 µM): 0.924
- relative viability (SW 1573; first compound 0.3162 µM): 0.896
- relative viability (SW 1573; first compound 1 µM): 0.814
- relative viability (NCI-H727; first compound 0.01 µM): 0.956
- relative viability (NCI-H727; first compound 0.03162 µM): 0.834
- relative viability (NCI-H727; first compound 0.1 µM): 0.919
- relative viability (NCI-H727; first compound 0.3162 µM): 1.05
- relative viability (NCI-H727; first compound 1 µM): 0.844
- relative viability (NCI-H460; first compound 0.01 µM): 0.972
- relative viability (NCI-H460; first compound 0.03162 µM): 1.13
- relative viability (NCI-H460; first compound 0.1 µM): 1.03
- relative viability (NCI-H460; first compound 0.3162 µM): 1.04
- relative viability (NCI-H460; first compound 1 µM): 1.18
- relative viability (HCC-827; first compound 0.01 µM): 1.05
- relative viability (HCC-827; first compound 0.03162 µM): 1.01
- relative viability (HCC-827; first compound 0.1 µM): 1.19
- relative viability (HCC-827; first compound 0.3162 µM): 1.17
- relative viability (HCC-827; first compound 1 µM): 1.05
- relative viability (CAL-12T; first compound 0.01 µM): 1.13
- relative viability (CAL-12T; first compound 0.03162 µM): 1.2
- relative viability (CAL-12T; first compound 0.1 µM): 1.35
- relative viability (CAL-12T; first compound 0.3162 µM): 1.23
- relative viability (CAL-12T; first compound 1 µM): 1.19
- relative viability (LCLC-103H; first compound 0.01 µM): 0.942
- relative viability (LCLC-103H; first compound 0.03162 µM): 0.866
- relative viability (LCLC-103H; first compound 0.1 µM): 0.858
- relative viability (LCLC-103H; first compound 0.3162 µM): 0.755
- relative viability (LCLC-103H; first compound 1 µM): 0.597
- relative viability (HOP-62; first compound 0.01 µM): 1.15
- relative viability (HOP-62; first compound 0.03162 µM): 1.13
- relative viability (HOP-62; first compound 0.1 µM): 1.24
- relative viability (HOP-62; first compound 0.3162 µM): 1.16
- relative viability (HOP-62; first compound 1 µM): 1.12
- relative viability (SK-LU-1; first compound 0.01 µM): 0.942
- relative viability (SK-LU-1; first compound 0.03162 µM): 0.78
- relative viability (SK-LU-1; first compound 0.1 µM): 1.12
- relative viability (SK-LU-1; first compound 0.3162 µM): 1.07
- relative viability (SK-LU-1; first compound 1 µM): 0.662
- relative viability (NCI-H1395; first compound 0.01 µM): 0.999
- relative viability (NCI-H1395; first compound 0.03162 µM): 1.02
- relative viability (NCI-H1395; first compound 0.1 µM): 0.912
- relative viability (NCI-H1395; first compound 0.3162 µM): 0.887
- relative viability (NCI-H1395; first compound 1 µM): 0.818
- relative viability (EMC-BAC-2; first compound 0.01 µM): 0.54
- relative viability (EMC-BAC-2; first compound 0.03162 µM): 1.02
- relative viability (EMC-BAC-2; first compound 0.1 µM): 0.983
- relative viability (EMC-BAC-2; first compound 0.3162 µM): 1.13
- relative viability (EMC-BAC-2; first compound 1 µM): 0.952
- relative viability (COR-L 105; first compound 0.01 µM): 1.27
- relative viability (COR-L 105; first compound 0.03162 µM): 0.994
- relative viability (COR-L 105; first compound 0.1 µM): 1.23
- relative viability (COR-L 105; first compound 0.3162 µM): 0.909
- relative viability (COR-L 105; first compound 1 µM): 1.15
- relative viability (NCI-H1915; first compound 0.01 µM): 1.15
- relative viability (NCI-H1915; first compound 0.03162 µM): 1.24
- relative viability (NCI-H1915; first compound 0.1 µM): 1.13
- relative viability (NCI-H1915; first compound 0.3162 µM): 1.27
- relative viability (NCI-H1915; first compound 1 µM): 1.15
- relative viability (HARA; first compound 0.01 µM): 0.996
- relative viability (HARA; first compound 0.03162 µM): 0.848
- relative viability (HARA; first compound 0.1 µM): 0.998
- relative viability (HARA; first compound 0.3162 µM): 0.985
- relative viability (HARA; first compound 1 µM): 0.493
- relative viability (NCI-H2228; first compound 0.01 µM): 1.03
- relative viability (NCI-H2228; first compound 0.03162 µM): 1.01
- relative viability (NCI-H2228; first compound 0.1 µM): 1.35
- relative viability (NCI-H2228; first compound 0.3162 µM): 0.998
- relative viability (NCI-H2228; first compound 1 µM): 0.635
- relative viability (NCI-H2009; first compound 0.01 µM): 1.33
- relative viability (NCI-H2009; first compound 0.03162 µM): 1.25
- relative viability (NCI-H2009; first compound 0.1 µM): 1.22
- relative viability (NCI-H2009; first compound 0.3162 µM): 1.29
- relative viability (NCI-H2009; first compound 1 µM): 1.18
- relative viability (NCI-H1755; first compound 0.01 µM): 0.986
- relative viability (NCI-H1755; first compound 0.03162 µM): 0.92
- relative viability (NCI-H1755; first compound 0.1 µM): 0.969
- relative viability (NCI-H1755; first compound 0.3162 µM): 0.936
- relative viability (NCI-H1755; first compound 1 µM): 0.882
- relative viability (A-427; first compound 0.01 µM): 1.18
- relative viability (A-427; first compound 0.03162 µM): 1.11
- relative viability (A-427; first compound 0.1 µM): 1.18
- relative viability (A-427; first compound 0.3162 µM): 1.1
- relative viability (A-427; first compound 1 µM): 0.99
